Source: patent publication US12173291B2, “Unnatural base pair compositions and methods of use” (THE SCRIPPS RESEARCH INSTITUTE, priority 2017, dated 2024)

Key:
[1] = test system: E. coli BL21(DE3) SSO; experiment: Growth of chromosomal UBP integrants with or without dNaMTP and dTPT3TP (doubling time); format: cell-based; details: ΔrecA-Opt and Pol II+ΔrecA integrants, dNaMTP and dTPT3TP provided together in media
Procedure: Mid-log phase cells WT-Opt, ΔrecA-Opt, and Pol II^+ΔrecA-Opt SSOs and their corresponding chromosomal UBP integrants (described above) were prepared using the following procedure. Saturated overnight cultures were prepared by inoculation of 2×YT containing chloramphenicol (5 μg/mL), dTPT3TP (37.5 μM), dNaMTP (150 μM), and KPi (50 mM, pH 7) from glycerol stock stabs and overnight growth (approximately 14 h) at 37° C. at 230 RPM. These cells were diluted to 0.03 OD600 in 500 μL 2×YT containing chloramphenicol (5 μg/mL), dTPT3TP (37.5 μM), dNaMTP (150 μM), and KPi (50 mM, pH 7) and grown at 37° C. at 230 RPM. Growth was monitored by OD600. Once cells reached mid-log phase (0.3-0.5 OD600), they were diluted to 0.013 OD600 in 500 μL 2×YT containing chloramphenicol (5 μg/mL), dTPT3TP (37.5 μM), dNaMTP (150 μM), and KPi (50 mM, pH 7) or 2×YT containing chloramphenicol (5 μg/mL) and KPi (50 mM, pH 7) in a 48-well plate and grown at 37° C. at 230 RPM. OD600 was measured every 30 min. This procedure was performed in triplicate for each strain starting from inoculation of overnight cultures.
OD600 data from each experiment was analyzed to obtain a theoretical cell doubling time (FIG. 2B and FIGS. 8A-8B). […]
Where ODi is the OD600 at time (t), OD0 is minimum OD600 value for a given data set, and CGrowth is the growth constant. […] Doubling times (DT) were calculated using the following equation: […]

[2] = test system: OneTaq DNA Polymerase; experiment: PCR amplification of long DNAs (overlap assembly PCR); format: biochemical; details: presence of dTPT3TP in PCR
Procedure: The UBP knock-in cassette for the arsB locus (FIGS. 7A-7C) was produced through overlapping PCR of a 150-bp dsDNA containing a UBP and the kanamycin resistance gene of pKD13. The 150 bp DNA was produced with a 50-μL PCR using the same reaction solution conditions as above and the following temperature regime (time in mm:ss): [98° C. 02:00|5×(98° C. 00:10|50° C. 00:10|68° C. 04:00)|15×(98° C. 00:10|58° C. 00:10|68° C. 04:00)]. The kanamycin resistance gene amplicon was produced through PCR amplification off pKD13 using Q5 DNA polymerase as per manufacturer recommendations. The amplification of long DNAs (approximately 200 bp or longer) is inhibited by the presence of dTPT3TP. Therefore, the overlap assembly PCR of the UBP containing amplicon and kanamycin resistance gene amplicon was performed on large-scale (2 mL of reaction mixture split into 40 individual 50-μL reactions) with the following solution conditions: UBP containing amplicon (0.02 ng/μL), kanamycin resistance gene amplicon (0.02 ng/μL), primers (1 μM), dTPT3TP (5 μM), dNaMTP (100 μM), dNTPs (200 μM), MgSO4 (1.2 mM), OneTaq DNA Polymerase (0.025 U/μL), and OneTaq Standard Reaction Buffer (1 x). The reactions were subjected to the following temperature regime (time in mm:ss): [98° C. 02:00|5×(98° C. 00:10|50° C. 00:10|68° C. 04:00)|15×(98° C. 00:10|58° C. 00:10|68° C. 04:00)]. […]

COc1cc2ccccc2cc1[C@H]1C[C@H](O)[C@@H](COP(=O)(O)OP(=O)(O)OP(=O)(O)O)O1 [dNaMTP, triphosphate of dNaM]
Growth defect of chromosomal UBP integrants [1]: almost entirely eliminated

O=P(O)(O)OP(=O)(O)OP(=O)(O)OC[C@H]1O[C@@H](n2ccc3ccsc3c2=S)C[C@@H]1O [dTPT3TP]
Growth defect of chromosomal UBP integrants [1]: almost entirely eliminated
Amplification of long DNAs (approximately 200 bp or longer) [2]: inhibited
